According to patent US12583846B2, “2H-benzopyran derivatives as CRAC inhibitors” (CISEN PHARMACEUTICAL CO., LTD, priority 2019, dated 2026):

Experiments:
[1] = Pharmacokinetic evaluation in mice (intravenous administration of compound 18 or 22, 50 mg/kg); assay type: in vivo, C57BL/6 mice; conditions: for elimination in plasma after administration (in words): intravenous 50 mg/kg
Method: Purpose of the experiment: male C57BL/6 mice were used as test animals, and the LC/MS/MS method was applied to determine the plasma drug concentrations of the compounds at different time points after intravenous administration. The pharmacokinetic behavior of the compounds in mice was studied, and their pharmacokinetic characteristics were evaluated.
Drug preparation: an appropriate amount of sample was weighed to prepare 5 mg/mL of clear solution with sterile normal saline.
Administration scheme: two healthy male C57BL/6 mice purchased from Beijing Vital River Laboratory Animal Technology Co., Ltd. was on a normal diet, with a volume of 10 mL/kg and a dose of 50 mg/kg.
(§1) Procedure: after animal administration, 25 μL of blood was collected at 0.083, 0.25, 0.5, 1, 2, 4, 8, 12, and 24 hours, respectively and placed in a commercial anticoagulative tube pre-loaded with EDTA-K2. The tubes were centrifuged for 10 minutes to separate plasma and stored at −60° C. The content of the corresponding compounds in plasma samples was determined by LC/MS/MS.

[2] = Thermodynamic solubility test; assay type: physicochemical; conditions: for solubility in water (in words): conclusion of the thermodynamic solubility test
Method: About 2 mg of test compound was weighed into a whatman vial, and 450 μL of phosphate buffer (50 mM, pH=7.4) was added. The stopper of whatman vial was pressed to near the liquid level so that the filter membrane in the stopper is in uniform contact with the liquid level. The vial was shaken well up and down on vortex for two minutes, and the dissolution of test compound in the whatman vial was recorded. The whatman vial was shaken in a shaker at ambient temperature for 24 hours at a rotational speed of 600 r/min. The stopper of whatman vial was slowly pressed to the lowermost part to obtain the supernatant. […] A linear solution (3 standard solutions, 1, 20, 200 μM, n=1) was prepared with diluent. The supernatant was taken out, and 10 μL of the supernatant was accurately taken out and diluted 100 times. The obtained diluent and stock solution and linear solution were simultaneously put into HPLC for detection and analysis, and the results were calculated by an external standard method according to peak area and dilution factor.

IL-2 = test: Inhibitory activity on cytokines: IL-2 in supernatant of anti-CD3/anti-CD28 stimulated hPBMC by CBA method; assay type: cell-based; conditions: Homo sapiens, 48 h, anti-CD3/anti-CD28, 2 days incubation
Method: (§2) Human peripheral blood mononuclear cells (hPBMC); supplier: HemaCare; Article Number: PB009C-2
(§3) 96-well plates were coated with 5 μg/mL anti-human CD3 antibody (in DPBS) at […] overnight at 4° C.
(§4) PBMC were removed from liquid nitrogen and immediately placed in a 37° C. water bath for recovery. To a 15 mL centrifuge tube, 5 mL culture medium (RPMI1640 culture medium+10% fetal bovine serum+1% non-essential amino acids+1% penicillin streptomycin+0.05 mM β-mercaptoethanol) was added, and the cell suspension was pipetted to the centrifuge tube, and the mixture was centrifuged at 320 g for 5 minutes. The cells were resuspended with culture medium and counted, and the cell concentration was then adjusted to 5×10^5 cells/mL with the culture medium, To the cell suspension was added anti-human CD28 antibody (final concentration 2 μg/mL), and the mixture was inoculated into a 96-well plate at 200 μL/well.
(§5) Compounds were prepared at the desired concentration and added to the cells. The mixture was incubated at 37° C., 5% CO2 for 2 days.
The standards were prepared according to the instructions of IL-2 and TNFα Flex Set kit. The supernatant of the cultured cells was diluted 5-fold with the buffer provided in the kit and added to a 96-well plate together with the standards. The plated was added with magnetic beads containing antibody from the kit, and incubated at room temperature for 1 hour. The fluorescein PE-labeled secondary antibody in the kit was added and incubated at room temperature for 2 hours. The average fluorescence intensity of the PE channel was detected by flow cytometry. Based on the average fluorescence intensity of the standards, the contents of IL-2 and TNF-α of the samples were calculated.

TNF-α = test: Inhibitory activity on cytokines: TNFα in supernatant of anti-CD3/anti-CD28 stimulated hPBMC by CBA method; assay type: cell-based; conditions: Homo sapiens, 48 h, anti-CD3/anti-CD28, 2 days incubation
Method: as §2, §3, §4, §5
The standards were prepared according to the instructions of IL-2 and TNFα Flex Set kit. […] The average fluorescence intensity of the PE channel was detected by flow cytometry. Based on the average fluorescence intensity of the standards, the contents of IL-2 and TNF-α of the samples were calculated.

[3] = Pharmacokinetic evaluation experiment in mice (intravenous or intraperitoneal injection of compound 6); assay type: in vivo, C57BL/6 mice
Method: Purpose of the experiment: male C57BL/6 mice were used as test animals, and the plasma drug concentrations of the test compounds were determined by LC/MS/MS at different time points after intravenous or intraperitoneal injection. The pharmacokinetic behavior of the test compound in mice was studied to evaluate its pharmacokinetic characteristics.
Drug preparation: an appropriate amount of sample was weighed to prepare 0.3 mg/mL or 0.5 mg/mL clear solution with 40% PEG400+20% Solutol+40% H2O (volume ratio).
Administration scheme: two healthy male C57BL/6 mice purchased from Beijing Vital River Laboratory Animal Technology Co., Ltd. was on a normal diet. The intravenous injection group was administered with 0.5 mg/mL solution, with a dose volume of 2 mL/kg and a dose of 1 mg/kg. The intraperitoneal injection group was administered with 0.3 mg/mL solution, with a volume of 10 mL/kg and a dose of 3 mg/kg.
as §1, with “target compound” for “the corresponding compounds”

[4] = test system: bombesin-induced acute pancreatitis model in mice; test: Pharmacodynamic test of bombesin-induced acute pancreatitis in mice (compound 6); assay type: in vivo, C57BL/6 mice; conditions: compound 6 intraperitoneal 20 mg/kg; bombesin 50 μg/kg x 7; FIG. 2
Method: Purpose of the experiment: male C57BL/6 mice were used as test animals, and acute pancreatitis was induced by intraperitoneal injection of bombesin. The efficacy of compound 6 on acute pancreatitis was studied.
Drug preparation: an appropriate amount of sample was weighed, and compound 6 was prepared to a 4 mg/mL clear solution with 40% PEG-400+20% Solutol+40%+H2O (v/v).
Experiment scheme: healthy male C57BL/6 mice were injected with bombesin intraperitoneally to induce pancreatitis model, at a dose of 50 μg/kg each time, with 7 injections at an interval of 1 hour. One hour after the seventh injection of bombesin, serum was taken and the levels of amylase and lipase were measured. Compound 6 was administered by intraperitoneal injection at a dose of 20 mg/kg.
Experimental results: see FIG. 2. The levels of plasma amylase (AMY) and lipase (LPS) were analyzed by one-way ANOVA, * * indicates significant difference with G1 (P<0.01), * indicates significant difference with G1 (P<0.05).

[5] = administered compound itself in plasma, 50 mg/kg intravenous, mice, 50 mg/kg
[6] = male, C57BL/6, mouse, plasma, iv, 50 mg/kg, administered compound itself in plasma, 50 mg/kg intravenous, mice
[7] = male, C57BL/6, mouse, plasma, intravenous injection, 1 mg/kg
[8] = male, C57BL/6, mouse, plasma, ip, intraperitoneal injection, 3 mg/kg

O=C(c1c(F)cccc1F)N(COP(=O)(O)O)c1cnc(-c2cc3oc(C4CC4)cc3cc2Cl)cn1 [Compound 22]
AUC0-last [1, 5]: 37.1 µM·h
CL [1, 5]: 28.9 mL/min/kg
DNAUC0-last (exposure normalized to molar dose) [1, 5]: 0.58 µM·h
T1/2 [1, 5]: 2.53 h
Vdss [1, 5]: 1.05 L/kg
elimination in plasma after administration (in words) ([1]; mice): rapidly eliminated
solubility in water (in words) [2]: very good

O=C(c1c(F)cccc1F)N(COP(=O)(O)O)c1cnc(-c2cc3oc(C4CC4)cc3cc2Cl)cn1 [Compound 18]
DNAUC0-last (exposure normalized to molar dose) [1, 5]: 0.69 µM·h
AUC(0-t) [1, 6]: 57.2 µM·h
clearance [1, 6]: 25.1 mL/min/kg
half-life [1, 6]: 2.49 h
Vd ([1]; male, C57BL/6, mouse, plasma, iv, 50 mg/kg, administered compound itself in plasma, 50 mg/kg intravenous, mice, read-out: Vdss): 0.84 L/kg
elimination in plasma after administration (in words) ([1]; mice): rapidly eliminated
solubility thermodynamic at 24 h ([2]; aqueous buffer, thermodynamic from solid, phosphate buffer 50 mM, pH 7.4, 24 hours, ambient temperature): > 200 µM
solubility in water (in words) [2]: very good

O=C(c1c(F)cccc1F)N(COP(=O)(O)O)c1cnc(-c2cc3oc(C4CC4)cc3cc2Cl)cn1 [Compound 23]
solubility in water (in words) [2]: very good

O=C(Nc1cnc(-c2cc3oc(C4CC4)nc3cc2Cl)cn1)c1c(F)cccc1F [Compound 4]
IC50 (IL-2): 280 nM

O=C(Nc1cnc(-c2cc3oc(C4COC4)cc3cc2Cl)cn1)c1c(F)cccc1F [Compound 17]
IC50 (IL-2): 173 nM
IC50 (TNF-α): 328 nM

O=C(Nc1cnc(-c2cc3oc(C4CC4)cc3cc2Cl)cn1)c1c(F)cccc1F [Compound 6]
IC50 (IL-2): 63.8 nM
IC50 (TNF-α): 138 nM
formation of compound 6 in plasma (in words) ([1]; from 5 min of administration of compound 18 or 22, mice): a large amount
plasma exposure and pharmacokinetic properties (in words) ([3]; intravenous and intraperitoneal routes): higher plasma exposure and desirable pharmacokinetic properties
bioavailability ([3]; male, C57BL/6, mouse, plasma, intraperitoneal 3 mg/kg vs intravenous 1 mg/kg): 125%
AUC(0-t) [3, 7]: 15.6 µM·h
clearance [3, 7]: 2.05 mL/min/kg
half-life [3, 7]: 10.6 h
Vd ([3]; male, C57BL/6, mouse, plasma, intravenous injection, 1 mg/kg, read-out: Vdss): 1.77 L/kg
AUC(0-t) [3, 8]: 62.7 µM·h
Cmax [3, 8]: 5.53 µM
Tmax [3, 8]: 2 h
serum amylase (AMY) level [4]: significantly reduce
serum lipase (LPS) level [4]: significantly reduce
